Measured values published in patent US6001880A, “Alkylenediamine derivative, anti-ulcer drug, and antibacterial drug” (Shiseido Co., Ltd., priority 1997, dated 1999).

Experiments:
[1] = test system: stress ulcer formation in rats; assay: WIS: Restraint and Water Immersion Stress-Induced Ulcer Inhibition Test; format: in vivo, rat (male Crj:SD or Slc:SD); settings: 100 mg/kg oral, 10 minutes before 7 h restraint and water immersion (21° C.)
Protocol: WIS: Restraint and Water Immersion Stress-Induced Ulcer Inhibition Test
The degree of inhibition of the stress ulcer formation is tested.
Male Crj:SD or Slc:SD rats (6 to 7-week-old) were fasted overnight, but allowed free access to water. Each group has 5 to 8 of these rats. The sample compound was dissolved or suspended in an aqueous solution of 0.3% sodium carboxymethylcellulose or 0.05% Tween 80 and then was orally administered (100 mg/10 ml/kg). To a control group, the vehicle was administered. 10 minutes later, the rats were placed in a stress cage and immersed to the level of xipfoid process in a water bath (21° C.) for 7 hours. At the end of the stress, the rats were sacrificed by inhalation of ether or carbon dioxide. Then, the stomach of each was removed, inflated by injecting 10 ml of 5% formalin neutral buffer solution, and immersed in 1% formalin neutral buffer solution for 30 minutes or more to be fixed. The stomach was incised along the greater curvature and then the length of each erosion in the glandular portion was determined under dissecting microscope. The sum of the length of erosions per stomach was defined as ulcer index (UI).
The effect obtained when 100 mg/kg of the sample compound had been administered was expressed as ulcer formation inhibitory rate (%) as follows:
ulcer formation inhibitory rate (%)=(1-(UI in sample group/UI in control

[2] = test system: isolated gastric fundic gland; assay: CAP: Acid Secretion Inhibition Test In Vitro ([14C]-aminopyrine uptake); format: cell-based, rabbit (male Japanese White); settings: Oryctolagus cuniculus; final concentration 10^-5 M; histamine 10^-5 M stimulation; read-out: CAP: acid secretion inhibitory rate
Protocol: CAP: Acid Secretion Inhibition Test In Vitro
The acid secretion inhibitory activity in a cell level is studied. It can also be used for studying the mechanism of the effect.
First, an isolated gastric fundic gland sample was prepared. Namely, a male Japanese White rabbit (2.5 to 3 kg) was anesthetized to death with Nembutal™ and then the abdomen was incised. Immediately thereafter, the stomach was removed and, after its pyloric and cardiac antrum were severed, incised along its greater curvature into two sheets. The gastric contents adhering to the mucosal surface was washed out with ice-cooled PBS (-) and then carefully washed therein. The gastric wall was spread on a cork board with its mucosal surface facing up and the feed and mucus thereon were completely removed with sterile gauze. The mucosa was separated therefrom by a spatula and then collected in ice-cooled PBS (-). After being washed twice with PBS (-), the mucosa was minced into 2-3 mm^3 pieces by scissors. These pieces were further washed twice with a nutrient solution. The nutrient solution comprises 132.4 mM of NaCl, 5.4 mM of KCl, 5 mM of Na2 HPO4. 12H2 O, 1 mM of NaH2 PO4.2H2 O, 1.2 mM of MgSO4, 1 mM of CaCl2, 25 mM of HEPES, 2 mg/ml of glucose, and 1 mg/ml of BSA.
Into 70 ml of the nutrient solution containing 1 mg/ml of collagenase, minced mucosal pieces were dispersed and intensely stirred in a conical flask with a stirrer at 37° C. for 40 to 60 minutes. During this period, 100% O2 was sprayed on the nutrient solution surface and the pH was appropriately measured such that it was immediately adjusted to pH 7.4, when the value was therebelow, with a base. The nutrient solution was added to the reaction solution so as to attain the total amount of about 200 ml. After being filtered through a mesh, the suspension was divisionally introduced into 50 ml centrifuge tubes and left for 15 minutes such that gastric fundic gland was deposited. The supernatant was repeatedly removed by an aspirator, dispersed in the nutrient solution, and then left such that the gastric fundic gland was washed three times. At this time, without using a pipette, the suspension was alternately introduced into two centrifuge tubes so as to effect dispersion. The number of cells was counted under microscope and adjusted to 1.6×10^6 cells/ml.
Then, [^14 C]-aminopyrine uptake test was performed. After an Eppendorf tube was weighed, 10 μl (final concentration: 10^-5 M) of histamine dissolved in the above-mentioned nutrient solution, 10 μl (final concentration: […]) of the test compound dissolved in DMSO, and 10 μl (final concentration: 0.05 μCi/ml) of [^14 C]-aminopyrine diluted with the nutrient solution were introduced therein and then 970 μl of the isolated gastric fundic gland suspension prepared above was added thereto. Subsequently, this mixture was shaken at 37° C. for 40 minutes at 125 cycles/minute. After being centrifuged for 30 seconds, 200 μl of its supernatant was collected into a mini-vial, while the rest was removed by an aspirator. The gland pellet was completely dried as the tube with its lid being opened was kept for one night in a drying oven at 80° C. and then the lid was closed and the weight was determined at room temperature. Then 100 μl of 1N KOH was added thereto and the tube with its lid being closed was treated at 60° C. for 1 to 2 hours so as to dissolve the pellet. Then, the contents thereof were transferred to a mini-vial. Into the mini-vial containing the supernatant or gland pellet, 4 ml of Atomlite™ was added and then the radioactivity was measured by a liquid scintillation counter. Here, after the radioactivity of the gland pellet was corrected by using a sample in which 20 mM of NaSCN was added so as to cancel the hydrogen ion concentration gradient, the integration ratio of aminopyrine specifically trapped by the gland pellet was calculated. This experiment was performed in duplicate.
Here, its principle will be briefly explained. […]

[3] = MTT: Cell Damaging and Protecting Effect Test; format: cell-based, rabbit (male Japanese White); settings: rabbit, gastric corpus mucosa cells, final concentration 10^-4 M, smaller value is better, read-out: MTT: cell damaging rate
Excerpt: MTT: Cell Damaging and Protecting Effect Test
It is confirmed that there is no toxicity in cell level. Those having a toxicity in cell level are inappropriate as an anti-ulcer drug.
A male Japanese White rabbit (2.5 to 3 kg) was anesthetized to death by Nembutal™ and, immediately thereafter, its stomach was removed. The greater curvature of the stomach was incised so as to remove the stomach contents therefrom. After the mucosal surface was washed with HBSS (Hanks' Balanced Salt Solution), the stomach in ice-cooled HBSS was transferred to a laboratory. Then, after the pyloric antrum was removed, the gastric corpus mucosa was separated by a spatula and then minced into 2 to 3 mm^3 pieces in BME (Basal Medium Eagle). Thereafter, these pieces were shaken at 120 to 130 cycles/minute for 15 minutes at 37° C. in BME 60 ml containing 280 U/ml of dispase and 30 to 50 U/ml of collagenase. Here, the concentration of collagenase was appropriately changed for each lot in view of the state of cells. The pieces were washed twice with EBSS (Earle's Balanced Salt Solution) containing 1 mM of EDTA and then shaken in MEM (Minimum Essential Medium) containing 1 mM of EDTA at 37° C. for 5 minutes. Subsequently, they were shaken in the dispase and collagenase having the same concentrations as those mentioned above for 15 minutes so as to remove the supernatant and then further shaken at 37° C. for 50 to 60 minutes at 120 to 130 cycles/minute. Then, after being washed twice with HBSS, Ham F12 containing 2% of Ultrocer G™ was used to attain the concentration of 1×10^6 cells/ml. Thus formed suspension was dispensed in each well of a 96-well plate by 200 μl. The plate was incubated in the atmosphere composed of 5% CO2 and 95% air at 37° C. for three days so as to attain a confluent state and then subjected to MTT assay.
The sample compound was dissolved in DMSO so as to attain a concentration of 10^-2 M and then diluted with HBSS containing 2% of Ultrocer G™ so as to attain a final concentration of 10^-4 M. To each group, which 8 wells were used for, 10 μl of MTT reagent was added immediately after 100 μl of the medium in each well was exchanged for same volume of the resulting solution of the sample compound. After being incubated in an atmosphere composed of 5% CO2 and 95% air at 37° C. for 4 hours, thus formed solution was centrifuged and then its supernatant was discarded. Subsequently, 100 μl of 100% ethanol was added to the residue so as to dissolve MTT formazan. Then, the absorbance (OD: 570 to 630) was measured by a microplate reader. This method utilizes a phenomenon in which MTT is changed to MTT formazan only by mitochondria of living cells so as to change color.
The cell damaging or cell protecting effect of the sample compound at the final concentration of 10^-4 M was expressed as cell damaging rate (%) as follows:
cell damaging rate (%)=(1-(absorbance in sample group/absorbance in control
Accordingly, the smaller value is better in the cell damaging rate.

CCN(CC)CCNC(=O)c1cccc(OC/C=C(\C)CCC=C(C)C)c1 [Example 1]
WIS: ulcer formation inhibitory rate [1]: 72%

CCN(CC)CCNC(=O)c1ccc(OC/C=C(\C)CCC=C(C)C)cc1 [Example 4]
WIS: ulcer formation inhibitory rate [1]: 83%

CCN(CC)CCNC(=O)c1ccc(OC/C=C(\C)CC/C=C(\C)CCC=C(C)C)cc1 [Example 6]
WIS: ulcer formation inhibitory rate [1]: 52%
inhibition at 10 µM [2]: 97.9%

CC(C)=CCC/C(C)=C/COc1ccc(C(=O)NCCN(CC(C)C)CC(C)C)cc1 [Example 9]
WIS: ulcer formation inhibitory rate [1]: 40%
cytotoxicity at 4 h, 100 µM [3]: 15%

CC(C)=CCC/C(C)=C/COc1ccc(C(=O)NCCN(C)CC(C)C)cc1 [Example 10]
WIS: ulcer formation inhibitory rate [1]: 65%

CCCCN(C)CCNC(=O)c1ccc(OC/C=C(\C)CCC=C(C)C)cc1 [Example 11]
WIS: ulcer formation inhibitory rate [1]: 45%
inhibition at 10 µM [2]: 100%

CC(C)=CCC/C(C)=C/COc1ccc(C(=O)NCCN(C)C(C)(C)C)cc1 [Example 12]
WIS: ulcer formation inhibitory rate [1]: 34%
inhibition at 10 µM [2]: 99.9%

CCN(CC)CCNC(=O)c1ccc(OC/C=C(\C)CCC=C(C)C)c(OC/C=C(\C)CCC=C(C)C)c1 [Example 18]
WIS: ulcer formation inhibitory rate [1]: 37%

CCN(CC)CCNC(=O)c1cc(OC/C=C(\C)CCC=C(C)C)cc(OC/C=C(\C)CCC=C(C)C)c1 [Example 19]
WIS: ulcer formation inhibitory rate [1]: 69%

CCN(CC)CCNC(=O)c1cc(OCC=C(C)C)c(OCC=C(C)C)c(OCC=C(C)C)c1 [Example 23]
WIS: ulcer formation inhibitory rate [1]: 81%

CC(C)=CCOc1cc(C(=O)NCCN(C)C)cc(OCC=C(C)C)c1OCC=C(C)C [Example 24]
WIS: ulcer formation inhibitory rate [1]: 70%

CC(C)=CCC/C(C)=C/CNc1ccc(C(=O)NCCN(C(C)C)C(C)C)cc1 [Example 26]
WIS: ulcer formation inhibitory rate [1]: 49%
inhibition at 10 µM [2]: 100%

CC(C)=CCC/C(C)=C/COc1ccc(C(=O)NCCN(C(C)C)C(C)C)cc1CC(C)C [Example 34]
WIS: ulcer formation inhibitory rate [1]: 48%
inhibition at 10 µM [2]: 100%

CCN(CC)CCNC(=O)c1cc(OC)c(OCC=C(C)C)c(OC)c1 [Example 36]
WIS: ulcer formation inhibitory rate [1]: 88%

CCN(CC)CCNC(=O)c1cc(OC)c(OC)c(OCC=C(C)C)c1 [Example 40]
WIS: ulcer formation inhibitory rate [1]: 79%
cytotoxicity at 4 h, 100 µM [3]: -2%

COc1cc(C(=O)NCCN(C)C)cc(OC)c1OC/C=C(\C)CCC=C(C)C [Example 43]
WIS: ulcer formation inhibitory rate [1]: 88%
cytotoxicity at 4 h, 100 µM [3]: 1%

CC(C)=CCOc1ccc(C(=O)NCCN(C)C)cn1 [Example 44]
WIS: ulcer formation inhibitory rate [1]: 30%

CC(C)=CCOc1ncccc1C(=O)NCCN(C)C [Example 45]
WIS: ulcer formation inhibitory rate [1]: 41%

CCN(CC)CCNC(=O)c1cccnc1OCC=C(C)C [Example 47]
WIS: ulcer formation inhibitory rate [1]: 80%

CC(C)=CCC/C(C)=C/COc1ccc(C(=O)NCCN(C)C)cn1 [Example 49]
WIS: ulcer formation inhibitory rate [1]: 38%

CCN(CC)CCNC(=O)c1cccnc1OC/C=C(\C)CCC=C(C)C [Example 52]
WIS: ulcer formation inhibitory rate [1]: 57%
inhibition at 10 µM [2]: 101%

CC(C)=CCOc1cccnc1C(=O)NCCN(C)C [Example 53]
WIS: ulcer formation inhibitory rate [1]: 67%
cytotoxicity at 4 h, 100 µM [3]: 1%

CCN(CC)CCNC(=O)c1ncccc1OCC=C(C)C [Example 54]
WIS: ulcer formation inhibitory rate [1]: 78%
cytotoxicity at 4 h, 100 µM [3]: -10%

CC(C)=CCOc1cccnc1C(=O)NCCN(C(C)C)C(C)C [Example 55]
WIS: ulcer formation inhibitory rate [1]: 97%
cytotoxicity at 4 h, 100 µM [3]: 20%

CC(C)N(CCNC(=O)c1ccc2c(c1)OCO2)C(C)C [Example 58]
WIS: ulcer formation inhibitory rate [1]: 96%
cytotoxicity at 4 h, 100 µM [3]: 29%

CC(C)COc1ccc(C(=O)NCCN(C(C)C)C(C)C)cc1 [Example 60]
WIS: ulcer formation inhibitory rate [1]: 98%
inhibition at 10 µM [2]: 97.3%

CC(C)N(CCNC(=O)c1ccc(C(C)(C)C)cc1)C(C)C [Example 61]
WIS: ulcer formation inhibitory rate [1]: 94%
inhibition at 10 µM [2]: 97.3%

CCCCCCCCc1ccc(C(=O)NCCN(C(C)C)C(C)C)cc1 [Example 63]
WIS: ulcer formation inhibitory rate [1]: 49%
inhibition at 10 µM [2]: 101%

CC(C)N(CCNC(=O)c1cc(C(C)(C)C)cc(C(C)(C)C)c1)C(C)C [Example 65]
WIS: ulcer formation inhibitory rate [1]: 86%
cytotoxicity at 4 h, 100 µM [3]: 5%

CC(C)N(CCNC(=O)c1ccc(C(=O)NC(C)(C)C)cc1)C(C)C [Example 67]
WIS: ulcer formation inhibitory rate [1]: 77%
cytotoxicity at 4 h, 100 µM [3]: -35%

CC(C)N(CCNC(=O)c1ccc(N(C)C)cc1)C(C)C [Example 70]
WIS: ulcer formation inhibitory rate [1]: 66%
inhibition at 10 µM [2]: 101%
